Key:
[1] = biological target: T1, recombinant, membrane-bound mPGES-1 (Homo sapiens, UniProt O14684); assay: Thiobarbituric acid assay (TBA-MDA assay), inhibition of mPGES-1; assay type: biochemical; details: remaining PGH2 measured at 535 nm
T1 sequence (O14684 1-152): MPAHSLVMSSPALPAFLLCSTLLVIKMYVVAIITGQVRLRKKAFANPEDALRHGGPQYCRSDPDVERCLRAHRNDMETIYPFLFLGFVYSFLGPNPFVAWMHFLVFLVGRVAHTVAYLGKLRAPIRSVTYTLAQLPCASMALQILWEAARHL
Description: Malondialdehyde is a product of lipid peroxidation and reacts with thiobarbituric acid forming a red product that absorbs at 535 nm (W. G. Niehaus, Jr and B. Samuelsson, Eur. J. Biochem 6, 126 (1968). The extinction coefficient of the TBA-MDA conjugate is 1.56×10^5 M^−1 cm^−1 (E. D. Wills. Biochem. J. 113, 315 (1969).
The method used for detection of inhibition of mPGES-1 is based on the detection of the amount of remaining PGH2. This method was described more than 20 years ago by Basevich et al (Bioorg. Khim. 1983, 9(5), 658-665.
The assay used was a modified variant and used citric acid instead of the TCA-TBA-HCl reagent described in the original assay. In this assay recombinant, membrane-bound mPGES-1 was incubated with PGH2. The reaction was stopped by adding citric acid with a final pH of 3 and a large excess of FeCl2 (20 mM) to convert any remaining PGH2 into MDA and […]. TBA reagent was finally added (0.67%) and the samples were heated at 80° C. for 30 min. The absorbance of the conjugate was measured at 535 nm.
The product of mPGES-1 (PGE2) was not measured directly in this assay, but rather the remaining substrate (PGH2) indirectly by adding FeCl2 that converts PGH2 into […] and 12-HHT. As a positive control a known mPGES-1 inhibitor, MK-886, was used and the new inhibitors were compared with the inhibition of MK-886 (% of MK-886 inhibition).

[2] = test system: A549 lung carcinoma cells; assay: A549 assay, PGE2 content in supernatant by EIA; assay type: cell-based; details: Homo sapiens, A549; TNFalfa and IL-1beta induced 16 h; 30 min compound, then 10 μM arachidonic acid 30 min
Procedure: A549 lung carcinoma cells, seeded at a density of 10,000 cells/well, were grown in 96 well tissue culture plates. TNFalfa (5 ng/ml) and […] (5 ng/ml) were added and the cells were incubated for 16 hours. Cells were washed in PBS and test compounds at the appropriate concentration in HBSS/0.1% BSA were added. After 30 minutes incubation with test compounds, 10 μM arachidonic acid was added and cells were further incubated for 30 minutes. Supernatant was collected and analyzed for PGE2 content by EIA according to manufacturer's instructions.

| IC50 [1] [nM] | EC50 [2] [nM] | SMILES |
| --- | --- | --- |
| 260 | 1480 | O=C(NCc1cccc2ccccc12)c1cccc(NC(=O)c2ccccc2Cl)c1 [Compound 117, 2-Chloro-N-{3-[(naphthalen-1-ylmethyl)-carbamoyl]-phenyl}-benzamide] |
| 49 | 500 | O=C(Nc1ccc(C(F)(F)F)cn1)c1cccc(NC(=O)c2ccccc2C(F)(F)F)c1 [Compound 153, 3-[2-(Trifluoromethyl)-benzoylamino]-N-(5-trifluoromethyl-pyridine-2-yl)-benzamide] |

From patent US20100324086A1, “COMPOUNDS AND METHODS” (Novasaid AB, priority 2008, published 2010)
